One data set deals with Isolated human islets. Description: MTS viability assay of islets co-cultured with MPO and antioxidants. It is filed as cell-based. How it is done: FIG. 4: Viability of islets co-cultured with MPO and antioxidants. Isolated human islets were co-cultured with 10 mM MPO for 2 days in normal culture conditions with the following antioxidants: 100 Units/mL Catalase, 1.5 mM Trolox and 30 μM MnTE-2-Pyp. After the two day culture period islet viabilty was determined with an MTS assay. Error bars represent standard deviation, n=5.
Previous studies have shown that the isolation process predisposes islets to subsequent damage and functional impairment and that an SOD mimicking catalytic antioxidant, MnTE-2-PyP (also called AEOL10113), developed by Drs.

A short description of data set [1]: Oxygen release (dissolved oxygen) from POGS encapsulated in alginate microbeads in a hypoxic chamber. It is filed as physicochemical. The conditions noted are these: for duration of oxygen release from alginate microbeads containing MgO2 in the presence of antioxidant: 2.5% MPO in alginate microcapsules, 100 U/ml catalase, 1.5 mM Trolox, compared to MPO alone. The source says: FIG. 1: Comparison of CaO2 and MgO2 release over six days, dissolved oxygen readings are an average of 5 sample groups with 1500 microcapsules each; measurements were taken in a hypoxic chamber.
FIG. 2: Effect of antioxidants on oxygen release from alginate microcapsules with 2.5% MPO.
Comparison of CPO and MPO: We first examined the oxygen release profiles of two POGS, CPO and MPO encapsulated in alginate microbeads in the absence or presence of catalase (100 U/ml), and the antioxidant, Trolox (1.5 mM). Sieves were used to select both MPO and CPO particles equal to and less than 25 μm in diameter. Then 0.5% by weight solution of 1.5% LVM and either CPO or MPO were prepared respectively. These solutions were then extruded through an encapsulating device forming microspheres measuring […] in diameter, which were allowed to crosslink for 15 minutes in 1.1% CaCl2 solution. After cross-linking, the microbeads were rinsed with HBSS and placed into 50 ml conical tubes (BD, USA) containing 20 mL ultra pure water with 10 mM HEPES (pH=7.4). Tubes were placed in a 1% oxygen environment in a hypoxic glovebox system (Biospherix, USA) with the caps of the tubes removed allowing for gas exchange. Dissolved oxygen readings were taken every 24 hours for 6 days using an Orion 4-star DO Probe (Thermo Science).
Oxygen release from MPO Alginate Capsules: On the basis of a better release profile, we then selected MgO2 for further studies. First the release profiles of various concentrations of MPO were measured. Using the same technique as described above 0%, 0.25%, 0.5%, 1%, 1.5%, 2.0%, 2.5%, 5%, 10%, 20%, 30%, and 40% (by weight) solutions of MPO in 1.5% UP LVM were prepared, with particles larger than 25 μM sieved out of the solution prior to encapsulation. […] Dissolved oxygen levels were measured for up to 250 hours. Using the same methodology we then assessed the effect of the antioxidants, Catalase and Trolox, on oxygen release. […] Capsules were prepared and dissolved oxygen levels were measured as described earlier. […] Dissolved oxygen levels were measured for up to 250 hours.

Data set [2] relates to islet cell functional mass. The conditions noted are these: used in the isolation or culture medium; cited from earlier work.

Entries after “also recorded” stand apart in the source; their conditions may differ.

For the molecule `[Mg+2].[O-][O-]` [MPO, Magnesium Peroxide], the “effect of MPO on islet viability” value in the data set on Isolated human islets (10 mM MPO, 2 days normal culture) is “diminishing effect”. Besides, the release of oxygen entry in data set [1] (0.5% by weight CPO or MPO in 1.5% LVM alginate microbeads, 1% oxygen environment, readings every 24 hours for 6 days) was “higher release of oxygen for up to five days compared to CPO”.
With `CC[n+]1ccccc1-c1c2nc(c(-c3cccc[n+]3CC)c3ccc([n-]3)c(-c3cccc[n+]3CC)c3nc(c(-c4cccc[n+]4CC)c4ccc1[n-]4)C=C3)C=C2.[Mn+3]` [MnTE-2-PyP, Mn (III) tetrakis (N-ethylpyridinium-2-yl) porphyrin], the “effect on viability of islets co-cultured with MPO” value in the data set on Isolated human islets (10 mM MPO, 30 μM MnTE-2-Pyp, 2 days normal culture) is “counteracts the diminishing effect of MPO on islet viability”. For the same molecule, in the data set with Isolated human islets (added to islets in normal culture, 30 μM MnTE-2-Pyp, 2 days, n=5), the “viability of isolated human islets” value was “significantly (p<0.05) enhances the viability”. Moreover, the “preservation of islet cell functional mass” value in data set [2] is “beneficial in preserving islet cell functional mass”.
As for `Cc1c(C)c2c(c(C)c1O)CCC(C)(C(=O)O)O2` (stereo not shown) [Trolox, 6-hydroxy-2,5,7,8-tetramethylchroman-2-carboxylic acid], the “duration of oxygen release from alginate microbeads containing MgO2 in the presence of antioxidant” value in data set [1] is reported as “this effect is not observed; also recorded: no significant change”.

B1: catalase: Catalase (from bovine liver), peroxide decomposition catalyst (protein, UniProt P00432 2-527, looked up)
Catalase: ADNRDPASDQMKHWKEQRAAQKPDVLTTGGGNPVGDKLNSLTVGPRGPLLVQDVVFTDEMAHFDRERIPERVVHAKGAGAFGYFEVTHDITRYSKAKVFEHIGKRTPIAVRFSTVAGESGSADTVRDPRGFAVKFYTEDGNWDLVGNNTPIFFIRDALLFPSFIHSQKRNPQTHLKDPDMVWDFWSLRPESLHQVSFLFSDRGIPDGHRHMNGYGSHTFKLVNANGEAVYCKFHYKTDQGIKNLSVEDAARLAHEDPDYGLRDLFNAIATGNYPSWTLYIQVMTFSEAEIFPFNPFDLTKVWPHGDYPLIPVGKLVLNRNPVNYFAEVEQLAFDPSNMPPGIEPSPDKMLQGRLFAYPDTHRHRLGPNYLQIPVNCPYRARVANYQRDGPMCMMDNQGGAPNYYPNSFSAPEHQPSALEHRTHFSGDVQRFNSANDDNVTQVRTFYLKVLNEEQRKRLCENIAGHLKDAQLFIQKKAVKNFSDVHPEYGSRIQALLDKYNEEKPKNAVHTYVQHGSHLSAREKANL
On to B1, for which the “duration of oxygen release from alginate microbeads containing MgO2 in the presence of antioxidant” value in data set [1] is recorded as “significantly shortened”.
